# Assay results taken from article PMC4621027, “Hydroxyethylamine Based Phthalimides as New Class of Plasmepsin Hits: Design, Synthesis and Antimalarial Evaluation” (PLoS ONE, 2015).
# “Also recorded” adds a separate entry of the source.
# Legend:
# [1] = tested on: P. falciparum developmental stages (asexual); assay: Effect on P. falciparum developmental stages, Giemsa-stained smears; assay type: cell-based, Plasmodium falciparum; conditions: 5 μM
# Experimental: Further, in order to assess the effect of potent molecule 5e on the parasite developmental stages (asexual), we treated tightly synchronized ring-stage parasite cultures with 5e at 5 μM concentration and counted the parasites at different developmental stages (rings, trophozoites and schizonts) in Giemsa-stained smears at three time points (36, 44, and 52 h after treatment). The control (untreated) parasite progressed through the first cell cycle (0–48 h), increased in size and density, developed into trophozoites and schizonts and subsequently formed viable merozoites. These merozoites were able to invade fresh RBCs and form new ring-stage parasites. (Fig 4).
# human erythrocytes = assay: In vitro hemolytic activity; assay type: cell-based; conditions: 3.125 to 100 μg/mL, 37°C, 1 h
# Experimental: In vitro hemolytic activity of all synthesized compounds was performed as per reported protocol with slight modifications. In brief, human erythrocytes were collected from Rotary Blood Bank (New Delhi, India) and suspended in phosphate buffer saline (PBS). The suspension (2% hemotocrit) was incubated with different concentrations (3.125 to 100 μg/mL) of the entire compound series at 37°C for 1 h. After 1 h, erythrocytes were pelleted at 3000 g for 10 min (Remi, R-8C/BL) at 4°C. The supernatant was collected and OD450 was determined spectrophotometrically (Biotek, ELx800 UV spectrophotometer) using PBS as a negative control and Triton X-100 for completely lysing the cells. The percent hemolysis was calculated using the following formula: Percent hemolysis = […]. The percent hemolysis was plotted against concentration of compounds for determining the dose cytotoxic to erythrocytes.
# plasmepsin 2 = target: T1, plasmepsin 2 (Plasmodium falciparum, UniProt P46925); assay: Inhibition of plasmepsin 2, chromogenic substrate cleavage assay; assay type: biochemical; conditions: tested at 10 to 50 μM
# T1 construct: preincubated at the assay pH for 3 minutes to allow conversion from the proenzyme to the mature enzyme form; made in house
# T1 sequence (P46925 125-453): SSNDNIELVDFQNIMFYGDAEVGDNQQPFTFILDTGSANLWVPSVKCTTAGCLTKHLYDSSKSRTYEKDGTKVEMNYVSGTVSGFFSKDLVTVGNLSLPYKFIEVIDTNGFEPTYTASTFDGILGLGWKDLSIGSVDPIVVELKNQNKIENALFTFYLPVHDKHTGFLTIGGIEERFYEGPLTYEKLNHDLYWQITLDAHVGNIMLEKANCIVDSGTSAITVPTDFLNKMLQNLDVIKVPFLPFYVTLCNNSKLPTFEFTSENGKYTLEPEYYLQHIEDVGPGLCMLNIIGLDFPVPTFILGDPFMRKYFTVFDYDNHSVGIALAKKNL
# Experimental: (§1) Synthetic compounds were dissolved in DMSO to make stock solutions at concentrations around 100 μM. Dilutions from these stocks were made to obtain solutions to use for studying inhibition of the plasmepsins 2 and 4 from P. falciparum. Assays of enzymatic activity were typically done using 50 micromolar substrate and 50 nanomolar enzyme at pH 4.5. The protein samples were preincubated at the assay pH for 3 minutes to allow conversion from the proenzyme to the mature enzyme form, then immediately mixed with inhibitor solutions and incubated for a further 5 minutes to permit the enzyme-inhibitor complex to form. Following this, the samples were mixed with samples of the substrate to yield a 50 μM substrate concentration in the final assay solution and immediately placed in a recording spectrophotometer to follow the reaction. The cleavage of the chromogenic substrate yields a shift in absorbance that can be quantified by the decrease in absorbance at 300 nm. Compounds were mixed with the enzymes at concentrations ranging from 10 to 50 μM range and the effect on enzyme activity studied in duplicate assays.
# (§2) A second inhibitor concentration was chosen that would yield approximately 30–35% inhibition and a third inhibitor concentration was chosen to yield approximately 65–70% inhibition. The three resulting curves of initial velocity versus substrate concentration were fit simultaneously to the competitive inhibition scheme; this yields values of Vmax, Km, and Ki.
# (§3) Plasmepsins, a family of aspartic proteases of malaria parasite, are known to participate in a wide variety of cellular processes essential for parasite survival. […] Similarly, plasmepsin 4 from P. falciparum can be prepared and activated. Catalytic activity of the plasmepsins can be studied by following the change in absorbance at 300 nm as cleavage occur between a Phe and a nitroPhe in the synthetic substrate, Lys-Pro-Ile-Glu-Phe-NO2Phe-Arg-Leu. The compounds listed in Tables 1, 2 and 3 were assayed for inhibition by preincubating with differnt concentrations of the compound with equal aliquots of either plasmepsin 2 or 4 followed by mixing with the assay substrate.
# P. falciparum 3D7 = assay: SYBR green I-based fluorescence parasite growth assay, CQ sensitive strain; assay type: cell-based, Plasmodium falciparum; conditions: Plasmodium falciparum; CQ sensitive strain 3D7; 48 h incubation; read-out: IC50 values ± SE, growth of P. falciparum (3D7)
# Experimental: (§4) For compound screening, SYBR green I-based fluorescence assay was setup as described in literature. Sorbitol synchronized parasites were incubated under normal culture conditions at 2% hematocrit and 1% parasitemia in the absence or presence of increasing concentrations of the compounds. Chloroquine (CQ) was used as positive control, while 0.4% DMSO was used as the negative control.
# (§5) We have studied the antimalarial effect of all the listed molecules in […] culture conditions in order to identify a putative lead structure for pharmacological applications.
# MCF-7 cell line = assay: MTT-colorimetric cytotoxicity assay; assay type: cell-based; conditions: 100, 25 and 6.25 μg mL^-1
# Experimental: Phthalimides were serially diluted in DMSO in a final concentration of 100, 25 and 6.25 μg mL^-1 and evaluated for their % cytotoxicity by using MTT-colorimetric assay on MCF-7 cell line. Cell lines were maintained in RPMI-1640 (Hi-Media, Mumbai) medium supplemented with heat inactivated FCS (10% v/v) and 100 U/mL of streptomycin and were cultured in a humidified 5% CO2 atmosphere at 37°C. 100 μL (~2×10^5) of cells were seeded into wells (per well) on a 96-well plate (Nunc, Maxi Sorp) and incubated for 16 h for adherence. After 16 h, media was aspirated from the wells and the cells were washed with RPMI-1640 without FCS. 75 μL of each compound and control was added to separate wells containing cell lines and incubated at 37°C in humidified 5% CO2 atmosphere for 4 h. After 4 h, media containing the compounds was replaced with 200 μL of normal RPMI-1640 and cells were further incubated for 48 h under same conditions. After 48 h media was replaced by 200 μL of MTT (3-(4, 5-dimethylthiazol-2-yl)-2, 5-diphenyltetrazolium bromide, 0.5 mg/mL of RPMI-1640) and further incubated for 2 h. The formazan crystals were formed and suspended in 100 μL iso-propanol containing 0.06 M HCl and 0.5% SDS. Aliquots were drawn from each well and colour intensity was measured spectrophotometrically in an ELISA plate reader (Biotek, ELx800) at 540 nm. Untreated cells were taken as control with 100% viability and cells without addition of MTT were used as blank. The relative cell viability (%) compared to control cells was calculated by [abs] sample/ [abs] control × 100.
# plasmepsin 4 = target: T2, plasmepsin 4 (Plasmodium falciparum, UniProt Q8IM16); assay: Inhibition of plasmepsin 4, chromogenic substrate cleavage assay; assay type: biochemical; conditions: tested at 10 to 50 μM
# T2 construct: preincubated at the assay pH for 3 minutes to allow conversion from the proenzyme to the mature enzyme form; made in house
# T2 sequence (Q8IM16 122-449): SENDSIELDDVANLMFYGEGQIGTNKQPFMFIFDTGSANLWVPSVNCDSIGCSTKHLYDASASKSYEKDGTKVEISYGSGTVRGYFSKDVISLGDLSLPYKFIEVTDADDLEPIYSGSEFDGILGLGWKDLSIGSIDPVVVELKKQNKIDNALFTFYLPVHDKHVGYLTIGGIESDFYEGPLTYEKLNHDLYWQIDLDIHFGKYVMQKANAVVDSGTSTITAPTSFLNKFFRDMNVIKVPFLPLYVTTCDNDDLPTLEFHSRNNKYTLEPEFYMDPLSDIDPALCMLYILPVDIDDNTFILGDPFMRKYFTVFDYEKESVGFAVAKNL
# Experimental: as §1, §2, §3
# [2] = tested on: CQ resistant strain (7GB) of P. falciparum; assay: Antiplasmodial activity against CQ resistant strain; assay type: cell-based; conditions: Plasmodium falciparum; values in brackets; 48 h incubation; read-out: IC50 values ± SE, CQ resistant strain (7GB) (converted)
# Experimental: as §4, §5
smiles,measurement,setting,value
CC(C)(C)OC(=O)N[C@H](Cc1ccccc1)[C@@H](O)CN1CCC(N2CCCCC2)CC1 [Compound 5e],total parasitemia compared with the control set,[1]; at 52 h,lower total parasitemia
same,effect on parasite developmental stages,"[1]; synchronized ring-stage cultures, 36, 44 and 52 h after treatment",developmental arrest in the transition from early to late schizont
same,hemolysis of human erythrocytes (in words),human erythrocytes,lower hemolysis
same,inhibition of plasmepsin 2 (in words),plasmepsin 2,did not inhibit
same,IC50,P. falciparum 3D7,1160 ± 40 nM
same,cytotoxic effect on MCF7 cell line (in words),MCF-7 cell line,low cytotoxic effect; also recorded: less toxic
same,inhibition of plasmepsin 4 (in words),plasmepsin 4,did not inhibit
same,IC50,[2],2990 nM
